# Test results from PubChem BioAssay AID2060893 (Molecular Pharmacology Branch, DTP, NCI, 2025).
# Test system: K86415-001-R-J1-PDC complex spheroids, viability
# Experiment: Anticancer human tumor K86415-001-R-J1-PDC patient-derived lung adenocarcinoma cell line growth inhibition [RAS]
# Settings: for IC50: curve of first compound; for viability, T/C: stronger effect = lower value
# In short: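 Multi-cell-type spheroids: tumor cells plus HUVEC endothelial cells and mesenchymal stem cells. RAS-pathway inhibitors were combined with targeted agents, each dosed in half-log steps down from clinical Cmax, or from 10 microM when Cmax was unknown.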
# [1] = second compound 0.00316 µM, first compound 0.0316 µM
# [2] = second compound 0.00316 µM, first compound 0.1 µM
# [3] = second compound 0.00316 µM, first compound 0.316 µM
# [4] = second compound 0.00316 µM, first compound 1 µM
# [5] = second compound 0.00316 µM, first compound 3.16 µM
# [6] = second compound 0.00316 µM, first compound 10 µM
# [7] = second compound 0.01 µM, first compound 0.0316 µM
# [8] = second compound 0.01 µM, first compound 0.1 µM
# [9] = second compound 0.01 µM, first compound 0.316 µM
# [10] = second compound 0.01 µM, first compound 1 µM
# [11] = second compound 0.01 µM, first compound 3.16 µM
# [12] = second compound 0.01 µM, first compound 10 µM
# [13] = second compound 0.0316 µM, first compound 0.0316 µM
# [14] = second compound 0.0316 µM, first compound 0.1 µM
# [15] = second compound 0.0316 µM, first compound 0.316 µM
# [16] = second compound 0.0316 µM, first compound 1 µM
# [17] = second compound 0.0316 µM, first compound 3.16 µM
# [18] = second compound 0.0316 µM, first compound 10 µM
# [19] = second compound 0.1 µM, first compound 0.0316 µM
# [20] = second compound 0.1 µM, first compound 0.1 µM
# [21] = second compound 0.1 µM, first compound 0.316 µM
# [22] = second compound 0.1 µM, first compound 1 µM
# [23] = second compound 0.1 µM, first compound 3.16 µM
# [24] = second compound 0.1 µM, first compound 10 µM
# [25] = second compound 0.316 µM, first compound 0.0316 µM
# [26] = second compound 0.316 µM, first compound 0.1 µM
# [27] = second compound 0.316 µM, first compound 0.316 µM
# [28] = second compound 0.316 µM, first compound 1 µM
# [29] = second compound 0.316 µM, first compound 3.16 µM
# [30] = second compound 0.316 µM, first compound 10 µM
# [31] = second compound 1 µM, first compound 0.0316 µM
# [32] = second compound 1 µM, first compound 0.1 µM
# [33] = second compound 1 µM, first compound 0.316 µM
# [34] = second compound 1 µM, first compound 1 µM
# [35] = second compound 1 µM, first compound 3.16 µM
# [36] = second compound 1 µM, first compound 10 µM
# 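Also: spheroids exposed to agents for seven days before readout.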
smiles,measurement,setting,value
CC(Nc1ccc2c(c1)OCCn1cc(N3C(=O)OCC3C(F)F)nc1-2)C(N)=O (stereo unspecified) + C=CC(=O)N1CCN(c2nc(OCC3CCCN3C)nc3c(F)c(-c4nc(N)cc(C)c4C(F)(F)F)c(Cl)cc23)C(C)C1,IC50,second compound 0.00316 µM,< 31.6 nM
same,IC50,second compound 0.01 µM,< 31.6 nM
same,IC50,second compound 0.0316 µM,< 31.6 nM
same,IC50,second compound 0.1 µM,< 31.6 nM
same,IC50,second compound 0.316 µM,< 31.6 nM
same,IC50,second compound 1 µM,< 31.6 nM
same,"viability, T/C",[1],12.4%
same,"viability, T/C",[2],11%
same,"viability, T/C",[3],9.71%
same,"viability, T/C",[4],13.9%
same,"viability, T/C",[5],8.57%
same,"viability, T/C",[6],4.65%
same,"viability, T/C",[7],10.6%
same,"viability, T/C",[8],8.09%
same,"viability, T/C",[9],7.67%
same,"viability, T/C",[10],4.13%
same,"viability, T/C",[11],2.86%
same,"viability, T/C",[12],1.6%
same,"viability, T/C",[13],8.44%
same,"viability, T/C",[14],6.97%
same,"viability, T/C",[15],5.95%
same,"viability, T/C",[16],3.55%
same,"viability, T/C",[17],2.24%
same,"viability, T/C",[18],1.34%
same,"viability, T/C",[19],8.36%
same,"viability, T/C",[20],6.36%
same,"viability, T/C",[21],3.79%
same,"viability, T/C",[22],3.04%
same,"viability, T/C",[23],1.94%
same,"viability, T/C",[24],1.11%
same,"viability, T/C",[25],8.27%
same,"viability, T/C",[26],6.69%
same,"viability, T/C",[27],4.1%
same,"viability, T/C",[28],5.15%
same,"viability, T/C",[29],2.4%
same,"viability, T/C",[30],1.49%
same,"viability, T/C",[31],7.44%
same,"viability, T/C",[32],6.59%
same,"viability, T/C",[33],4.3%
same,"viability, T/C",[34],2.92%
same,"viability, T/C",[35],2.11%
same,"viability, T/C",[36],1.04%
C[C@@H](NC(=O)c1ncnc(N)c1Cl)c1ncc(C(=O)Nc2cc(C(F)(F)F)c(Cl)cn2)s1 + C=CC(=O)N1CCN(c2nc(OCC3CCCN3C)nc3c(F)c(-c4nc(N)cc(C)c4C(F)(F)F)c(Cl)cc23)C(C)C1,IC50,second compound 0.00316 µM,< 31.6 nM
same,IC50,second compound 0.01 µM,< 31.6 nM
same,IC50,second compound 0.0316 µM,< 31.6 nM
same,IC50,second compound 0.1 µM,< 31.6 nM
same,IC50,second compound 0.316 µM,< 31.6 nM
same,IC50,second compound 1 µM,< 31.6 nM
same,"viability, T/C",[1],24.3%
same,"viability, T/C",[2],23.5%
same,"viability, T/C",[3],23.3%
same,"viability, T/C",[4],25.3%
same,"viability, T/C",[5],19%
same,"viability, T/C",[6],17.7%
same,"viability, T/C",[7],14.8%
same,"viability, T/C",[8],14.6%
same,"viability, T/C",[9],14.2%
same,"viability, T/C",[10],14.6%
same,"viability, T/C",[11],20%
same,"viability, T/C",[12],14%
same,"viability, T/C",[13],12%
same,"viability, T/C",[14],11.7%
same,"viability, T/C",[15],10.3%
same,"viability, T/C",[16],10.8%
same,"viability, T/C",[17],11.4%
same,"viability, T/C",[18],10.2%
same,"viability, T/C",[19],13.1%
same,"viability, T/C",[20],10.6%
same,"viability, T/C",[21],14.1%
same,"viability, T/C",[22],10.8%
same,"viability, T/C",[23],9.5%
same,"viability, T/C",[24],9.83%
same,"viability, T/C",[25],10.6%
same,"viability, T/C",[26],11.1%
same,"viability, T/C",[27],10.8%
same,"viability, T/C",[28],10.8%
same,"viability, T/C",[29],10.5%
same,"viability, T/C",[30],10.7%
same,"viability, T/C",[31],10.6%
same,"viability, T/C",[32],13%
same,"viability, T/C",[33],13.4%
same,"viability, T/C",[34],11.6%
same,"viability, T/C",[35],10.8%
same,"viability, T/C",[36],11.1%
O=C(c1ccc(F)c(F)c1Nc1ccc(I)cc1F)N1CC(O)([C@@H]2CCCCN2)C1 + C=CC(=O)N1CCN(c2nc(OCC3CCCN3C)nc3c(F)c(-c4nc(N)cc(C)c4C(F)(F)F)c(Cl)cc23)C(C)C1,IC50,second compound 0.00316 µM,< 3.16 nM
same,IC50,second compound 0.01 µM,< 3.16 nM
same,IC50,second compound 0.0316 µM,< 3.16 nM
same,IC50,second compound 0.1 µM,< 3.16 nM
same,IC50,second compound 0.316 µM,< 3.16 nM
same,IC50,second compound 1 µM,< 3.16 nM
same,"viability, T/C","second compound 0.00316 µM, first compound 0.00316 µM",18.7%
same,"viability, T/C","second compound 0.00316 µM, first compound 0.01 µM",15.5%
same,"viability, T/C",[1],11.7%
same,"viability, T/C",[2],11.2%
same,"viability, T/C",[3],6.3%
same,"viability, T/C",[4],3.59%
same,"viability, T/C","second compound 0.01 µM, first compound 0.00316 µM",10.7%
same,"viability, T/C","second compound 0.01 µM, first compound 0.01 µM",9.82%
same,"viability, T/C",[7],7.43%
same,"viability, T/C",[8],7.21%
same,"viability, T/C",[9],5.24%
same,"viability, T/C",[10],2.8%
same,"viability, T/C","second compound 0.0316 µM, first compound 0.00316 µM",10.5%
same,"viability, T/C","second compound 0.0316 µM, first compound 0.01 µM",8.28%
same,"viability, T/C",[13],7.31%
same,"viability, T/C",[14],5.71%
same,"viability, T/C",[15],6.7%
same,"viability, T/C",[16],2.39%
same,"viability, T/C","second compound 0.1 µM, first compound 0.00316 µM",9.48%
same,"viability, T/C","second compound 0.1 µM, first compound 0.01 µM",8.63%
same,"viability, T/C",[19],6.77%
same,"viability, T/C",[20],5.29%
same,"viability, T/C",[21],3.4%
same,"viability, T/C",[22],2.5%
same,"viability, T/C","second compound 0.316 µM, first compound 0.00316 µM",9.04%
same,"viability, T/C","second compound 0.316 µM, first compound 0.01 µM",7.51%
same,"viability, T/C",[25],6.81%
same,"viability, T/C",[26],5.26%
same,"viability, T/C",[27],5.12%
same,"viability, T/C",[28],1.9%
same,"viability, T/C","second compound 1 µM, first compound 0.00316 µM",10%
same,"viability, T/C","second compound 1 µM, first compound 0.01 µM",8.81%
same,"viability, T/C",[31],8.35%
same,"viability, T/C",[32],5.6%
same,"viability, T/C",[33],4.91%
same,"viability, T/C",[34],2.61%
